# From the supplement of paper PMC11208160
# Assay: recombinant UMI read abundance after kanamycin selection (control-corrected) (log10(CPM+1)); higher = more efficient recombination; extreme values may be limits of the assay; sequences stand for … in AGTGCAGAGAAAATCGGCCAGTTTTCTCTGCCTGCAGTCCGCATGCCGTGGGACCCCTTGGGTTCTAACCTGTTGCCTAGATTTATGCAGCGGACTGCCTTTCTCCCAAAGTGATAAACCGG…AGGTTGGTTTCACT; site = the 11-nt donor
# Method in brief: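 Each donor and donor-binding-loop pair was tracked by a 12-nt UMI on a plasmid carrying a promoterless kanamycin gene. With a second plasmid supplying a fixed target and T7-inducible IS621 bridge recombinase, the pool was plated in Escherichia coli on IPTG (0.07 mM) plus kanamycin or unselected. Sequencing of recombinant UMIs across the donor–target junction gave counts expressed as log10(CPM+1) after replicate averaging and control-derived scaling.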
row,Sequence,recombinant UMI read abundance (log10)
1,GCCACGCCATGGACCGGTTTTCCCGGTAATCCGTATTTGTT (site GCCACGCCTTA),0.00385
2,GCCACGTCATGGACCGGTTTTCCCGGTAATCCGTATTTGTA (site GCCACGACTTA),0.0796
3,GCCACGTCATGGACCGGTTTTCCCGGTAATCCGTATTTGTA (site GCCACGCCTTA),0.0201
4,GCCACGTCATGGACCGGTTTTCCCGGTAATCCGTATTTGTA (site GCCACGGCTTA),0
5,GCCACGTCATGGACCGGTTTTCCCGGTAATCCGTATTTGTA (site GCCACGTCTTA),2.47
6,GCCACTGCATGGACCGGTTTTCCCGGTAATCCGTATTTGCC (site GCAACTGCTGG),1.19
7,GCCACTGCATGGACCGGTTTTCCCGGTAATCCGTATTTGCC (site GCCACTGCTGG),1.63
8,GCCACTGCATGGACCGGTTTTCCCGGTAATCCGTATTTGCC (site GCGACTGCTGG),0
9,GCCACTGCATGGACCGGTTTTCCCGGTAATCCGTATTTGCC (site GCTACTGCTGG),0
10,GCCACTTCATGGACCGGTTTTCCCGGTAATCCGTATTTGTT (site GCCACTTCTAA),0.855
11,GCCAGACCATGGACCGGTTTTCCCGGTAATCCGTATTTGGA (site GCCAGACCTTC),0.0205
12,GCCAGTCCATGGACCGGTTTTCCCGGTAATCCGTATTTGAT (site GCCAGTCCTAT),0.00932
13,GCCATACCATGGACCGGTTTTCCCGGTAATCCGTATTTGTG (site GCCATACCTCA),0.00697
14,GCCATGCCATGGACCGGTTTTCCCGGTAATCCGTATTTGTA (site GCCAAGCCTTA),0.00915
15,GCCATGCCATGGACCGGTTTTCCCGGTAATCCGTATTTGTA (site GCCACGCCTTA),0.0146
16,GCCATGCCATGGACCGGTTTTCCCGGTAATCCGTATTTGTA (site GCCAGGCCTTA),0.00785
17,GCCATGCCATGGACCGGTTTTCCCGGTAATCCGTATTTGTA (site GCCATGCCTTA),1.26
18,GCCCCGCCATGGACCGGTTTTCCCGGTAATCCGTATTTGTA (site GCCACGCCTTA),0.324
19,GCCCCGCCATGGACCGGTTTTCCCGGTAATCCGTATTTGTA (site GCCCCGCCTTA),0.478
20,GCCCCGCCATGGACCGGTTTTCCCGGTAATCCGTATTTGTA (site GCCGCGCCTTA),0.0226
21,GCCCCGCCATGGACCGGTTTTCCCGGTAATCCGTATTTGTA (site GCCTCGCCTTA),0.00782
22,GCCCGAGCATGGACCGGTTTTCCCGGTAATCCGTATTTGAA (site GCCCGAGCTTT),1.82
23,GCCCTCGCATGGACCGGTTTTCCCGGTAATCCGTATTTGAC (site GCCCTCGCTGT),2.61

row,Sequence,recombinant UMI read abundance (log10)
1,GCCGATACATGGACCGGTTTTCCCGGTAATCCGTATTTGTA (site GCCGATACTTA),1.91
2,GCCGGCTCATGGACCGGTTTTCCCGGTAATCCGTATTTGGA (site GCCGGCTCTTC),0.632
3,GCCGTATCATGGACCGGTTTTCCCGGTAATCCGTATTTGAA (site GCCGTATCTTT),2.31
4,GCCTACTCATGGACCGGTTTTCCCGGTAATCCGTATTTGGA (site GCCTACTCTTC),1.91
5,GCCTCCGCATGGACCGGTTTTCCCGGTAATCCGTATTTGAG (site GCCTCCGCTCT),0.364
6,GCCTCCTCATGGACCGGTTTTCCCGGTAATCCGTATTTGCT (site GCCTCCTCTAG),2.9
7,GCCTTAGCATGGACCGGTTTTCCCGGTAATCCGTATTTGCC (site GCCTTAGCTGG),0
8,GCGAAAACATGGACCGGTTTTCCCGGTAATCCGTATTTGCC (site GCGAAAACTAG),0
9,GCGAAAACATGGACCGGTTTTCCCGGTAATCCGTATTTGCC (site GCGAAAACTCG),0
10,GCGAAAACATGGACCGGTTTTCCCGGTAATCCGTATTTGCC (site GCGAAAACTGG),0
11,GCGAAAACATGGACCGGTTTTCCCGGTAATCCGTATTTGCC (site GCGAAAACTTG),0
12,GCGAAAACATGGACCGGTTTTCCCGGTAATCCGTATTTGCT (site ACGAAAACTAG),2.25
13,GCGAAAACATGGACCGGTTTTCCCGGTAATCCGTATTTGCT (site CCGAAAACTAG),0
14,GCGAAAACATGGACCGGTTTTCCCGGTAATCCGTATTTGCT (site GAGAAAACTAG),0
15,GCGAAAACATGGACCGGTTTTCCCGGTAATCCGTATTTGCT (site GCAAAAACTAG),0
16,GCGAAAACATGGACCGGTTTTCCCGGTAATCCGTATTTGCT (site GCCAAAACTAG),0
17,GCGAAAACATGGACCGGTTTTCCCGGTAATCCGTATTTGCT (site GCGAAAACTAA),0.207
18,GCGAAAACATGGACCGGTTTTCCCGGTAATCCGTATTTGCT (site GCGAAAACTAC),0
19,GCGAAAACATGGACCGGTTTTCCCGGTAATCCGTATTTGCT (site GCGAAAACTAG),0.854
20,GCGAAAACATGGACCGGTTTTCCCGGTAATCCGTATTTGCT (site GCGAAAACTAT),0.00596
21,GCGAAAACATGGACCGGTTTTCCCGGTAATCCGTATTTGCT (site GCGAAAACTCG),0
22,GCGAAAACATGGACCGGTTTTCCCGGTAATCCGTATTTGCT (site GCGAAAACTGG),0
23,GCGAAAACATGGACCGGTTTTCCCGGTAATCCGTATTTGCT (site GCGAAAACTTG),0

row,Sequence,recombinant UMI read abundance (log10)
1,GCGAAAACATGGACCGGTTTTCCCGGTAATCCGTATTTGCT (site GCGAAACCTAG),0
2,GCGAAAACATGGACCGGTTTTCCCGGTAATCCGTATTTGCT (site GCGAAAGCTAG),0
3,GCGAAAACATGGACCGGTTTTCCCGGTAATCCGTATTTGCT (site GCGAAATCTAG),0.325
4,GCGAAAACATGGACCGGTTTTCCCGGTAATCCGTATTTGCT (site GCGAACACTAG),0.232
5,GCGAAAACATGGACCGGTTTTCCCGGTAATCCGTATTTGCT (site GCGAAGACTAG),0
6,GCGAAAACATGGACCGGTTTTCCCGGTAATCCGTATTTGCT (site GCGAATACTAG),0
7,GCGAAAACATGGACCGGTTTTCCCGGTAATCCGTATTTGCT (site GCGACAACTAG),0.0316
8,GCGAAAACATGGACCGGTTTTCCCGGTAATCCGTATTTGCT (site GCGAGAACTAG),0
9,GCGAAAACATGGACCGGTTTTCCCGGTAATCCGTATTTGCT (site GCGATAACTAG),0.603
10,GCGAAAACATGGACCGGTTTTCCCGGTAATCCGTATTTGCT (site GCGCAAACTAG),0
11,GCGAAAACATGGACCGGTTTTCCCGGTAATCCGTATTTGCT (site GCGGAAACTAG),1.21
12,GCGAAAACATGGACCGGTTTTCCCGGTAATCCGTATTTGCT (site GCGTAAACTAG),1.73
13,GCGAAAACATGGACCGGTTTTCCCGGTAATCCGTATTTGCT (site GCTAAAACTAG),0
14,GCGAAAACATGGACCGGTTTTCCCGGTAATCCGTATTTGCT (site GGGAAAACTAG),0
15,GCGAAAACATGGACCGGTTTTCCCGGTAATCCGTATTTGCT (site GTGAAAACTAG),0
16,GCGAAAACATGGACCGGTTTTCCCGGTAATCCGTATTTGCT (site TCGAAAACTAG),0
17,GCGAAGCCATGGACCGGTTTTCCCGGTAATCCGTATTTGCG (site GCGAAGCCTCA),0.0182
18,GCGAAGCCATGGACCGGTTTTCCCGGTAATCCGTATTTGCG (site GCGAAGCCTCC),0.0276
19,GCGAAGCCATGGACCGGTTTTCCCGGTAATCCGTATTTGCG (site GCGAAGCCTCG),0.845
20,GCGAAGCCATGGACCGGTTTTCCCGGTAATCCGTATTTGCG (site GCGAAGCCTCT),0.455
21,GCGAAGGCATGGACCGGTTTTCCCGGTAATCCGTATTTGGG (site GCGAAGACTCC),0.255
22,GCGAAGGCATGGACCGGTTTTCCCGGTAATCCGTATTTGGG (site GCGAAGCCTCC),0.00939
